Experimental data taken from ChEMBL document CHEMBL2029284, “Synthesis and biological evaluation of ticagrelor derivatives as novel antiplatelet agents” (2012).
The source made the active and inactive calls. The calls are words filed in the database; no cut-off is given here.

System: Rattus norvegicus
Assay: Antiplatelet activity in Sprague-Dawley rat assessed as ex-vivo inhibition of ADP-induced platelet aggregation at 5 mg/kg, po at 0.5 hrs by Born's method relative to vehicle-treated control
Type: functional

Row | Structure (SMILES) | inhibition | inhibition in vivo at 5 mg/kg [%]
1 | CCCSc1nc(N[C@@H]2C[C@H]2c2ccc(F)c(F)c2)c2nnn([C@@H]3C[C@H](OCCOC(=O)c4ccccc4)[C@@H](O)[C@H]3O)c2n1 | inactive | –
2 | CCCSc1nc(N[C@@H]2C[C@H]2c2ccc(F)c(F)c2)c2nnn([C@@H]3C[C@H](OC(=O)CC)[C@@H](O)[C@H]3O)c2n1 | – | 44.5
3 | CCCSc1nc(N[C@@H]2C[C@H]2c2ccc(F)c(F)c2)c2nnn([C@@H]3C[C@H](O)[C@@H](O)[C@H]3O)c2n1 | – | 45.7
4 | CCCSc1nc(N[C@@H]2C[C@H]2c2ccc(F)c(F)c2)c2nnn([C@@H]3C[C@H](OC(=O)CCC)[C@@H](O)[C@H]3O)c2n1 | – | 28.5
5 | CCCSc1nc(N[C@@H]2C[C@H]2c2ccc(F)c(F)c2)c2nnn([C@@H]3C[C@H](OCCOC(=O)C(C)(C)C)[C@@H](O)[C@H]3O)c2n1 | – | 46.1
6 | CCCSc1nc(N[C@@H]2C[C@H]2c2ccc(F)c(F)c2)c2nnn([C@@H]3C[C@H](OC(=O)OCC(C)C)[C@@H](O)[C@H]3O)c2n1 | – | 13.2
7 | CCCSc1nc(N[C@@H]2C[C@H]2c2ccc(F)c(F)c2)c2nnn([C@@H]3C[C@H](OCCO)[C@@H](O)[C@H]3O)c2n1 [TICAGRELOR] | – | 66.3
8 | CCCSc1nc(N[C@@H]2C[C@H]2c2ccc(F)c(F)c2)c2nnn([C@@H]3C[C@H](OCCOC(=O)c4cccnc4)[C@@H](O)[C@H]3O)c2n1 | inactive | –
9 | CCCSc1nc(N[C@@H]2C[C@H]2c2ccc(F)c(F)c2)c2nnn([C@@H]3C[C@H](OCCOC(=O)OCC)[C@@H](O)[C@H]3O)c2n1 | – | 47.7
10 | CCCSc1nc(N[C@@H]2C[C@H]2c2ccc(F)c(F)c2)c2nnn([C@@H]3C[C@H](OC(=O)C(C)(C)C)[C@@H](O)[C@H]3O)c2n1 | inactive | –
11 | CCCSc1nc(N[C@@H]2C[C@H]2c2ccc(F)c(F)c2)c2nnn([C@@H]3C[C@H](OC(=O)c4ccccc4)[C@@H](O)[C@H]3O)c2n1 | – | 20.1
12 | CCCSc1nc(N[C@@H]2C[C@H]2c2ccc(F)c(F)c2)c2nnn([C@@H]3C[C@H](OC(=O)OCC)[C@@H](O)[C@H]3O)c2n1 | – | 42.5
13 | CCCSc1nc(N[C@@H]2C[C@H]2c2ccc(F)c(F)c2)c2nnn([C@@H]3C[C@H](OCCOC(=O)CCC)[C@@H](O)[C@H]3O)c2n1 | inactive | –
